In article PMC8347148, “An Evaluation of Human Induced Pluripotent Stem Cells to Test for Cardiac Developmental Toxicity” (International Journal of Molecular Sciences, 2021):
In brackets after ≈: the same amount, converted by molar mass. Like-named read-outs stand apart in the source and are kept apart here.

Columns and labels:
[1] = tested on: RIV9 hiPSC-derived cardiomyocytes; assay: hiPSC-EST cardiac contractile assay (count of contracting cardiomyocyte clusters); format: cell-based, human; conditions: for doses with reduced contractile activity / incidence: Figure 3; for hiPSC ID50: day 25, 50% inhibition of functional (contracting) cardiomyocytes vs control
Procedure: The hiPSC cell line RIV9 was obtained from the Stem Cell Core at the University of California, Riverside. hiPSCs were seeded on Matrigel (Corning, Glendale, AZ, USA)-coated tissue culture plates and maintained in a pluripotent state in mTeSR® medium (Stem Cell Technologies, Seattle, WA, USA). Cells were cultured under a humidified atmosphere of 5% CO2 at 37 °C and passaged for maintenance or to seed for experiments approximately every 5 days as previously described.
After cells reached 70% confluency (designated day 0), the medium was changed to control differentiation medium supplemented with 0.06 mg/mL ascorbic acid (Sigma-Aldrich, St. Louis, MO, USA) to induce cardiac differentiation. Control differentiation medium was comprised of Dulbecco’s modified Eagle’s medium (DMEM with 4.5 g/L glucose, L-glutamine and sodium pyruvate; Corning) supplemented with 18% FBS (PAA), 0.8% penicillin/streptomycin (10,000 units/10,000 units, Gibco, ThermoFisher Scientific, Grand Island, NY, USA), 0.12% non-essential amino acids (NEAA; Gibco), and 0.1 mM β-mercaptoethanol (Gibco). Cultures were cultured in differentiation media for 25 days, starting from day 0.
(§1) 5-flurorouracil (5-FU), all-trans retinoic acid (atRA), and penicillin G (PenG) were selected from a subset of chemicals used in the original EST validation study. 5-FU and atRA were selected as positive test compounds due to their established embryotoxic potential while PenG was used as a negative control. All chemicals were purchased from Sigma. Stock solutions were prepared in DMSO and filtered through a 0.2 micron Acrodisc® PSF Syringe Filter (Pall Corporation, Port Washington, NY, USA), aliquoted into sterile microcentrifuge tubes and stored at −20 °C until use. Test chemicals were serially diluted to final concentrations in differentiation media. Cardiogenic cultures were treated with designated chemicals (or solvent only) through day 25 of differentiation and hFF cultures were treated with each compound for a 25 day duration period. Compounds were replenished with each medium change.
(§2) A University of Kentucky smoking machine was used to produce smoke extract solutions from commercially available conventional Marlboro Red 100 brand cigarettes as previously described. The smoking machine took a 2.2 s puff of mainstream (MS) smoke every minute. Smoke solution concentrations were made in puff equivalents (PE), which are the number of cigarette puffs dissolved in 1 mL of medium. MS smoke solutions were produced by pulling 30 puffs of MS smoke through 10 mL of DMEM. Resulting 3 PE smoke extracts were filtered through a 0.2 micron Acrodisc® PSF Syringe Filter (Pall Corporation, Port Washington, NY, USA), aliquoted into sterile microcentrifuge tubes, and stored at −80 °C until use. Serial dilutions were performed in differentiation medium to reach desired final exposure concentrations. Cardiogenic cultures were treated with smoke solutions through 25 days of differentiation. Smoke solutions were replenished with each medium change.
A 10% (w/v) Camel Snus extract was prepared as previously described. Ten grams of Snus was added to 85 mL of DMEM and allowed to incubate at 37 °C for 2 h. This initial extract solution was centrifuged for 10 min at 4500× g. Supernatant from the first round of centrifugation was then centrifuged again at 13,000× g for 1 h. The resulting supernatant was collected and pH adjusted to 7.4. 15 mL of FBS was added to the pH-adjusted Snus extract to produce a 10% stock solution of Snus tobacco extract (STE). The stock solution was then sterile-filtered with a 0.22 μm vacuum filter system. STE was aliquoted into sterile microcentrifuge tubes and stored at −80 °C until use. Serial dilutions were performed in differentiation medium to reach desired final exposure concentrations. Cardiogenic cultures were treated with STE through 25 days of differentiation. STE was replenished with each medium change. […]

[2] = tested on: differentiating hiPSCs (hiPSC-cardiomyocytes); assay: hiPSC-EST cardiac viability assay (MTT); format: cell-based, human; conditions: for IC50: Homo sapiens, 600 h
Procedure: as §1, §2
A 10% (w/v) Camel Snus extract was prepared as previously described. Ten grams of Snus was added to 85 mL of DMEM and allowed to incubate at 37 °C for 2 h. This initial extract solution was centrifuged for 10 min at 4500× g. Supernatant from the first round of centrifugation was then centrifuged again at 13,000× g for 1 h. The resulting supernatant was collected and pH adjusted to 7.4. 15 mL of FBS was added to the pH-adjusted Snus extract to produce a 10% stock solution of Snus tobacco extract (STE). The stock solution was then sterile-filtered with a 0.22 μm vacuum filter system. STE was aliquoted into sterile microcentrifuge tubes and stored at −80 °C until use. Serial dilutions were performed in differentiation medium to reach desired final exposure concentrations. Cardiogenic cultures were treated with STE through 25 days of differentiation. STE was replenished with each medium change.
(§3) Cardiomyocyte survival following concurrent exposure to each compound was evaluated by 3-[4,5-dimethylthiazol-2-yl]-2,5-diphenylterazolium bromide (MTT) assay from three independent differentiations each carried out in technical quintuplicate as previously described. On day 25 of differentiation, cells were incubated with MTT (5 mg/mL) for 2 h at 37 °C. MTT supernatant was removed and replaced with a desorb solution of 0.7% SDS in 2-propanol. The absorbance of the solution was measured at 570 nm in an iMark™ microplate reader (Bio-Rad) with 655 nm as a reference wavelength. Here, mitochondrial dehydrogenase activity on the MTT in solution is directly proportional to a blue-purple product that is detected at 570 nm.
(§4) Half-maximal inhibitory compound doses of differentiation (ID50) and cytotoxicity (IC50) were determined from concentration-response curves using GraphPad Prism.

[3] = tested on: human foreskin fibroblasts (hFF); assay: hFF viability screen (MTT); format: cell-based; conditions: for IC50: Homo sapiens, Fibroblast; for concentrations with reductions in hFF cell viability: Figure 4B
Procedure: Human foreskin fibroblasts (hFF) were gifted from Dr. Derrick Rancourt (University of Calgary). hFFs were seeded onto 0.1% gelatin-coated tissue culture plates and maintained in Dulbecco’s modification of Eagle’s medium (DMEM with 4.5 g/L glucose, L-glutamine and sodium pyruvate; Corning cellgro) supplemented with 10% FBS (Atlanta Biologicals, Flower Branch, GA, USA) and 0.5% penicillin/streptomycin (10,000 units/10,000 units, Gibco).
as §1, §3, §4

3T3 fibroblast cells = tested on: 3T3 fibroblast cells; set-up: method as in PMID 14761682; conditions: mESC-EST, 3T3 viability; previously obtained in the authors' lab; cited from earlier work
[4] = maximum plasma concentration, human exposure; cited from earlier work
mESCs = tested on: mESCs; set-up: method as in PMID 14761682, PMID 21720311; conditions: EST prediction model; cited from earlier work
[5] = read-out: hiPSC IC50, day 25, MTT, 50% inhibition of viable cells vs control
[6] = day 25, MTT, 50% inhibition of viable cells vs control
[7] = 600 h, MTT, 25 day treatment, read-out: hFF IC50
[8] = fibroblast row of the hiPSC-EST in Table 1 (values equal hFF IC50 of Table 2), read-out: hiPSC 3T3 IC50

Row | SMILES | effect on formation of contractile structures [1] | doses with reduced contractile activity / incidence [1] | hiPSC ID50 [1] | IC50 [2, 5] | hiPSC IC50 [2, 6] | effect on hiPSC cell viability ([2]; tested concentration range) | IC50 [3, 7] | IC50 [3, 8] | concentrations with reductions in hFF cell viability ([3]; MTT) | mESCs 3T3 IC50 (3T3 fibroblast cells) | Cmax [4] | mESC Biostatistical Embryotoxicity Classification (mESCs) | increase in contractile cluster incidence ([1]; 1 × 10^−8 μg/mL) | concentrations at which cells failed to form contractile clusters ([1]; Figure 2) | IC50 ([2]; day 25, MTT, 50% inhibition of viable cells vs control, read-out: hiPSC IC50) | effect on hFF cell viability [3] | hFF IC50 ([3]; MTT, 25 day treatment) | concentration with significant cell death in hFF ([3]; highest tested concentration) | concentrations that negatively impacted the formation of contractile structures ([1]; by day 20, Figure 2) | concentrations with reductions in hiPSC cell viability ([2]; MTT, Figure 4A)
1 | CC1(C)S[C@@H]2[C@H](NC(=O)Cc3ccccc3)C(=O)N2[C@H]1C(=O)O [Penicillin G, penicillin G] | did not inhibit the formation of contractile structures | > 700 µg/mL | 739900 ng/mL | < 1000 µg/mL | >1000 µg/mL | did not find any reduced cell survival | ~1430 µg/mL (≈ 4290 µM) | 1430 µg/mL (≈ 4290 µM) | ≥ 800000 ng/mL | 1000 µg/mL | 134.6 [12] μg/mL | Not embryotoxic |  |  |  |  |  |  |  | 
2 | CC1=C(/C=C/C(C)=C/C=C/C(C)=C/C(=O)O)C(C)(C)CCC1 [All-Trans Retinoic Acid, all-trans retinoic acid] |  | above 1 × 10^−8 μg/mL | 0.000933 ng/mL |  |  |  | 0.0125 µg/mL (≈ 0.0415 µM) | 0.0125 µg/mL (≈ 0.0416 µM) | > 10 ng/mL | 2.7 µg/mL | 0.155–0.294 [13] μg/mL | Strongly embryotoxic | ~2 fold | above 1 × 10^−3 μg/mL | 3.64 µg/mL (≈ 12.1 µM) | dose-dependent reduction in cell viability | 0.0125 µg/mL | 1000 ng/mL |  | 
3 | O=c1[nH]cc(F)c(=O)[nH]1 [5-Fluorouracil, 5-fluorouracil] |  |  | 0.00229 ng/mL | 4.7e-05 µg/mL (≈ 0.000361 µM) | 4.726e-05 µg/mL |  | 0.000808 µg/mL (≈ 0.00621 µM) | 0.00081 µg/mL (≈ 0.00623 µM) | > 0.1 ng/mL | 0.05 µg/mL | 0.94 [13] μg/mL | Strongly embryotoxic |  |  |  | dose-dependent reduction in cell viability |  |  | above 1 × 10^−6 μg/mL | above 1 × 10^−6 μg/mL
